Assay results published in patent US10889546B2, “Alkynyl pyridine prolyl hydroxylase inhibitor, and preparation method and medical use thereof” (Jiangsu Hengrui Medicine Co., Ltd., priority 2015, dated 2021).

Legend:
VEGF = VEGF expression at the cellular level (VEGF kit); assay type: cell-based; conditions: Hep3B human hepatoma cell, 24 h after administration
Method: (§1) The test of the activity of some compounds of the present invention on VEGF at the cellular level and EPO at the cellular level is shown as follows. The method is in accordance with Bioorganic & Medicinal Chemistry Letters 23 (2013) 5953-5957, and the test was carried out by using VEGF and EPO kit respectively 24 h after administration.
(§2) Hep3B Cell: Human Hepatoma Cell

EPO = EPO expression at the cellular level (EPO kit); assay type: cell-based; conditions: Hep3B human hepatoma cell, 24 h after administration
Method: as §1, §2

Prolyl hydroxylase 2 = Prolyl hydroxylase 2 (Homo sapiens (Human), UniProt Q9GZT9); test: Prolyl hydroxylase 2 inhibition, fluorescence polarization method; assay type: biochemical; conditions: fluorescence polarization, read 1 h after adding the drugs; read-out: Prolyl hydroxylase 2 (IC50 nM)
Prolyl hydroxylase 2, sequence (Q9GZT9 whole entry): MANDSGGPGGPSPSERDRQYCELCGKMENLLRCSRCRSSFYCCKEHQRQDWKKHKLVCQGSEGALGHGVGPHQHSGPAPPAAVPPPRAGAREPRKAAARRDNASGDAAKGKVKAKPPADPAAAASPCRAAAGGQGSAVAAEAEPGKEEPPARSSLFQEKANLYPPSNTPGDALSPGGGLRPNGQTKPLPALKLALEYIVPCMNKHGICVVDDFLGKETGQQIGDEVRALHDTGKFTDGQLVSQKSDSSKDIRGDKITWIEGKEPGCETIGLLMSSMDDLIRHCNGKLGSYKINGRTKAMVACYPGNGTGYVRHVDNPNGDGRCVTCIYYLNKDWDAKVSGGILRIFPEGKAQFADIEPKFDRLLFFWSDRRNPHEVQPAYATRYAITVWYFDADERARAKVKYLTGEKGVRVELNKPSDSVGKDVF

Row | SMILES | Whether it can increase the expression of VEGF in cells (VEGF) | Whether it can increase the expression of EPO in cells (EPO) | IC50 (Prolyl hydroxylase 2) [nM]
1 | CC(NC(=O)c1ncc(C#Cc2ccc(C3CC3)cc2)cc1O)C(=O)O (stereo not shown) [Example 9, 2-(3-Hydroxy-5-p-cyclopropylphenylethynylpyridine)carboxamido propionic acid] | Yes | Yes | –
2 | CC(C)(C)Oc1cccc(OCC#Cc2cnc(C(=O)NCC(=O)O)c(O)c2)c1 [Example 40, 2-(3-Hydroxy-5-(3-m-tert-butoxyphenoxypropyn-1-yl))picolinamido acetic acid] | Yes | Yes | –
3 | O=C(O)CNC(=O)c1ncc(C#CCOc2cccc(Cl)c2Cl)cc1O [Example 61, 2-(3-Hydroxy-5-(3-(2,3-dichlorophenyl)oxypropyn-1-yl))picolinamido acetic acid] | Yes | Yes | –
4 | O=C(O)CNC(=O)c1nc(Cl)c(C#CCOc2ccc(C(=O)N3CC3)cc2)cc1O [Example 55] | Yes | Yes | –
5 | O=C(O)CNC(=O)c1ncc(C#CCOc2ccccc2Cl)cc1O [Example 45, 2-(3-Hydroxy-5-(3-o-chlorophenoxypropyn-1-yl))picolinamido acetic acid] | Yes | Yes | 175 ± 2.3
6 | COC(=O)CNC(=O)c1ncc(C#Cc2ccccc2)cc1O [Example 6, Methyl 2-(3-hydroxy-5-phenylethynyl)picolinamido acetate] | Yes | Yes | –
7 | O=C(O)CNC(=O)c1ncc(C#Cc2ccccc2)cc1O [Example 5, 2-(3-Hydroxy-5-phenylethynyl)picolinamido acetic acid] | Yes | Yes | 820 ± 10.9
8 | COc1ccc(OCC#Cc2cnc(C(=O)NCC(=O)O)c(O)c2)cc1 [Example 39, 2-(3-Hydroxy-5-(3-p-methoxyphenoxypropyn-1-yl))picolinamido acetic acid] | Yes | Yes | –
9 | CCc1ccc(OCC#Cc2cnc(C(=O)NCC(=O)O)c(O)c2)cc1 [Example 36] | Yes | Yes | 378 ± 33.3
10 | N#Cc1ccc(C#Cc2cnc(C(=O)NCC(=O)O)c(O)c2)cc1 [Example 19, 2-(3-Hydroxy-5-p-cyanophenylethynyl)picolinamido acetic acid] | Yes | Yes | –
11 | O=C(O)CNC(=O)c1ncc(C#CC2CC2)cc1O [Example 4, 2-(3-Hydroxy-5-cyclopropylethynyl)picolinamido acetic acid] | Yes | Yes | 834.9 ± 3.2
12 | COc1ccc(C#Cc2cnc(C(=O)NCC(=O)O)c(O)c2)cc1 [Example 16, 2-(3-Hydroxy-5-p-methoxyphenylethynyl)picolinamido acetic acid] | – | Yes | –
13 | CCc1ccc(NCC#Cc2cnc(C(=O)NCC(=O)O)c(O)c2)cc1 [Example 66, 2-(3-Hydroxy-5-(3-p-ethylanilinopropyn-1-yl))picolinamido acetic acid] | Yes | Yes | –
14 | O=C(O)CNC(=O)c1ncc(C#CCOc2cccc(Cl)c2)cc1O [Example 46, 2-(3-Hydroxy-5-(3-m-chlorophenoxypropyn-1-yl))picolinamido acetic acid] | Yes | Yes | 102 ± 5
15 | CN(C)C(=O)c1ccc(C#Cc2cnc(C(=O)NCC(N)=O)c(O)c2)cc1 [Example 23, 2-(3-Hydroxy-5-p-dimethylcarbamoylphenylethynyl)picolinamidoacetamide] | Yes | Yes | –
16 | O=C(O)CNC(=O)c1ncc(C#CCNc2ccccc2)cc1O [Example 64, 2-(3-Hydroxy-5-(3-anilinopropyn-1-yl))picolinamido acetic acid] | Yes | Yes | 326.5 ± 0.8
17 | CCc1ccc(OCC#Cc2cnc(C(=O)NCC(=O)OC)c(O)c2)cc1 [Example 29, Methyl 2-(3-hydroxy-5-(3-p-ethylphenoxypropyn-1-yl))picolinamido acetate] | Yes | Yes | –
18 | NC(=O)CNC(=O)c1ncc(C#CCOc2ccc(Cl)cc2)cc1O [Example 28] | Yes | Yes | –

Row | SMILES | Whether it can increase the expression of VEGF in cells (VEGF) | Whether it can increase the expression of EPO in cells (EPO) | IC50 (Prolyl hydroxylase 2) [nM]
19 | O=C(O)CNC(=O)c1ncc(C#Cc2ccc(-c3ccccc3)cc2)cc1O [Example 18, 2-(3-Hydroxy-5-(biphenyl-4-ylethynyl))picolinamido acetic acid] | – | – | 8130 ± 40.5
20 | COc1ccc(C#Cc2cc(O)c(C(=O)NCC(=O)O)nc2Cl)cc1 [Example 8, 2-(3-Hydroxy-5-p-methoxyphenylethynyl-6-chloro)picolinamido acetic acid] | Yes | Yes | –
21 | CCCCC(=O)Nc1ccc(C#Cc2cnc(C(=O)NCC(=O)OCC3CC3)c(O)c2)cc1 [Example 24, Cyclopropylmethyl 2-(3-hydroxy-5-p-pentanaminophenylethynyl)picolinamidoacetate] | – | Yes | –
22 | CC(=O)Nc1ccc(C#Cc2cnc(C(=O)NCC(=O)O)c(O)c2)cc1 [Example 22, 2-(3-Hydroxy-5-p-acetamidophenylethynyl)picolinamido acetic acid] | Yes | Yes | –
23 | Cc1nc(C(=O)NCC(=O)O)c(O)cc1C#CCOc1ccc(C2CC2)cc1 [Example 63, 2-(3-Hydroxy-5-(3-p-cyclopropylphenoxypropyn-1-yl)-6-methyl)picolinamido acetic acid] | – | Yes | –
24 | CCCCNC(=O)c1ccc(C#Cc2cnc(C(=O)NCC(=O)OC(C)C)c(O)c2)cc1 [Example 25, Isopropyl 2-(3-hydroxy-5-p-butylcarbamoylphenylethynyl)picolinamidoacetate] | Yes | – | –
25 | COc1cccc(C#Cc2cnc(C(=O)NCC(=O)O)c(O)c2)c1 [Example 17, 2-(3-Hydroxy-5-m-methoxyphenylethynyl)picolinamido acetic acid] | Yes | Yes | –
26 | NC(=O)c1ccc(OCC#Cc2cnc(C(=O)NCC(=O)O)c(O)c2)cc1 [Example 52, 2-(3-Hydroxy-5-(3-p-carbamoylphenoxypropyn-1-yl))picolinamido acetic acid] | – | Yes | –
27 | O=C(O)CNC(=O)c1ncc(C#CCOc2cccc(OC3CC3)c2)cc1O [Example 41, 2-(3-Hydroxy-5-(3-m-cyclopropoxyphenoxypropyn-1-yl))picolinamido acetic acid] | Yes | Yes | –
28 | O=C(O)CNC(=O)c1ncc(C#CCOc2ccc(C(F)(F)F)cc2)cc1O [Example 42, 2-(3-Hydroxy-5-(3-p-trifluoromethylphenoxypropyn-1-yl))picolinamido acetic acid] | – | – | 515 ± 6.1
29 | N#Cc1ccccc1C#Cc1cnc(C(=O)NCC(=O)O)c(O)c1 [Example 20, 2-(3-Hydroxy-5-o-cyanophenylethynyl)picolinamido acetic acid] | Yes | Yes | –
30 | CC(C)OC(=O)CNC(=O)c1ncc(C#CCOc2ccc(C#N)cc2)cc1O [Example 30, Isopropyl 2-(3-hydroxy-5-(3-p-cyanophenoxypropyn-1-yl))picolinamido acetate] | Yes | Yes | –
31 | Cc1ccc(C#Cc2cc(O)c(C(=O)NCC(=O)O)nc2C)cc1 [Example 7, 2-(3-Hydroxy-5-p-methylphenylethynyl-6-methyl)picolinamido acetic acid] | – | Yes | –
32 | O=C(O)CNC(=O)c1ncc(C#CCOc2cc(Cl)cc(Cl)c2)cc1O [Example 62, 2-(3-Hydroxy-5-(3-(3,5-dichlorophenyl)oxypropyn-1-yl))picolinamido acetic acid] | Yes | Yes | –
33 | O=C(O)CNC(=O)c1ncc(C#CCOc2ccc(C(=O)N3CCCC3)cc2)cc1O [Example 54, 2-(3-Hydroxy-5-(3-(4-(pyrrolidin-1-carbonyl)phenoxy)propyn-1-yl))picolinamido acetic acid] | Yes | Yes | –
34 | N#Cc1cccc(OCC#Cc2cnc(C(=O)NCC(=O)O)c(O)c2)c1 [Example 49, 2-(3-Hydroxy-5-(3-m-cyanophenoxypropyn-1-yl))picolinamido acetic acid] | Yes | Yes | –
35 | O=C(O)CNC(=O)c1ncc(C#CCOc2cccc(Br)c2)cc1O [Example 48, 2-(3-Hydroxy-5-(3-m-bromophenoxypropyn-1-yl))picolinamido acetic acid] | Yes | Yes | –
36 | O=C(O)CNC(=O)c1ncc(C#CCOc2ccc3ccccc3c2)cc1O [Example 58, 2-(3-Hydroxy-5-(3-(naphthalen-2-oxy)propyn-1-yl))picolinamido acetic acid] | Yes | Yes | –
